How the values were obtained:
aldose reductase = molecular target: T1, aldose reductase (Homo sapiens, UniProt P15121); experiment: Inhibition of aldose reductase enzyme activity (procedure of Hayman et al. as modified by Sestanj et al.); assay type: biochemical; settings: for inhibition at 10 µM: 10^-5 M; for inhibition at 1 µM: 10^-6 M; for inhibition at 0.1 µM: 10^-7 M; for aldose reductase inhibition (in words): qualitative statement
T1 construct: partially purified aldose reductase enzyme obtained from human placenta; from tissue; host or cells: human placenta
Experimental: (§1) The activity of the compounds of the present invention, as agents for the control of chronic diabetic complications, is determined by their ability to successfully pass one or more of the following standard biological or pharmacological tests, viz., (1) measuring their ability to inhibit the enzyme activity of isolated aldose reductase; (2) measuring their ability to reduce or inhibit sorbitol accumulation in the sciatic nerve and lens of acutely streptozotocinized (i.e., diabetic) rats; (3) measuring their ability to reverse already-elevated sorbitol levels in the sciatic nerve and lens of chronic streptozotocin-induced diabetic rats; (4) measuring their ability to prevent or inhibit galactitol formation in the lens of acutely galactosemic rats, and (5) measuring their ability to delay cataract formation and reduce the severity of lens opacities in chronic galactosemic rats.
The following 5-substituted imidzolidinedione derivatives of Examples 1 and 4, respectively, were tested for their ability to reduce or inhibit aldose reductase enzyme activity via the procedure of S. Hayman et al., as described in the Journal of Biological Chemistry, Vol. 240, p. 877 (1965) and as modified by K. Sestanj et al. in U.S. Pat. No. 3,821,383. In each case, the substrate employed was partially purified aldose reductase enzyme obtained from human placenta.

[1] = system: sorbitol levels in nerve and lens of diabetic subjects; experiment: Lowering of sorbitol levels in sciatic/peripheral nerve and lens of diabetic subjects (general statement); assay type: in vivo; settings: qualitative statement
Experimental: as §1

[2] = system: sorbitol accumulation in the sciatic nerve; experiment: Inhibition of sorbitol accumulation in the sciatic nerve of streptozotocinized (diabetic) rats; assay type: in vivo, rat
Excerpt: (§2) As previously indicated, the 5-substituted imidazolidinedione compounds of this inventon are readily adapted to therapeutic use as aldose reductase inhibitors for the control of certain chronic diabetic complications, in view of their ability to reduce lens and peripheral nerve sorbitol levels in diabetic subjects to a statistically significant degree. […] Furthermore, the herein described compounds of this invention can be administered by either the oral, topical or parenteral routes of administration. […]
as §1, with “rats. […]” for “rats.”

[3] = system: sorbitol accumulation in the lens; experiment: Inhibition of sorbitol accumulation in the lens of streptozotocinized (diabetic) rats; assay type: in vivo, rat
Excerpt: as §2
as §1, with “rats. […]” for “rats.”

[4] = partially purified enzyme from human placenta, read-out: Percent Inhibition of aldose reductase activity
[5] = 25 mg./kg. orally at 4, 8 and 24 hours after streptozotocin, measured at 27 hours, vs untreated control
[6] = diabetic rats, oral, 25 mg./kg.

SMILES: O=C1NC(=O)C(N2C(=O)c3cccc4cccc(c34)C2=O)N1 (stereo not shown) [Example 1, 5-naphthalimido-imidazolidine-2,4-dione]
- inhibition at 100 µM (aldose reductase; 10^-4 M, partially purified enzyme from human placenta, read-out: Percent Inhibition of aldose reductase activity): 100%
- inhibition at 10 µM (aldose reductase; [4]): 59%
- inhibition at 1 µM (aldose reductase; [4]): 17%
- inhibition at 0.1 µM (aldose reductase; [4]): 6%
- aldose reductase inhibition (in words) (aldose reductase): potent aldose reductase inhibitors
- lowering sorbitol levels in the sciatic nerve and lens of diabetic subjects (in words) [1]: effective in lowering sorbitol levels

SMILES: O=C1NC(=O)C(c2nn(Cc3ccc(Br)cc3F)c(=O)c3ccccc23)N1 (stereo not shown) [Example 4, 5-[3-(4'-bromo-2'-fluorobenzyl)-3,4-dihydro-4-oxophthalazin-1-yl]-imidazolidine-2,4-dione]
- inhibition at 10 µM (aldose reductase; [4]): 91%
- inhibition at 1 µM (aldose reductase; [4]): 86%
- inhibition at 0.1 µM (aldose reductase; [4]): 72%
- inhibition at 0.01 µM (aldose reductase; 10^-8 M, partially purified enzyme from human placenta, read-out: Percent Inhibition of aldose reductase activity): 20%
- aldose reductase inhibition (in words) (aldose reductase): potent aldose reductase inhibitors
- lowering sorbitol levels in the sciatic nerve and lens of diabetic subjects (in words) [1]: effective in lowering sorbitol levels
- reduction in the accumulated sorbitol levels in the sciatic nerve [2, 5]: 61%
- inhibition of the formation of sorbitol levels in the sciatic nerve (in words) [2, 6]: to a significantly high degree
- reduction in the accumulated sorbitol levels in the lens [3, 5]: 36%
- inhibition of the formation of sorbitol levels in the lens (in words) [3, 6]: to a significantly high degree
